Results from patent publication US20060183803A1, “L-aspartic acid for the treatment of assorted health problems” (Instituto del Metabolismo Celular, S.L., priority 2005, published 2006).

What was measured:
[1] = Clinical trial in type-1 and type-2 diabetes patients; format: in vivo, human
Excerpt: There is, in principle, no special protocol for patients suffering from diabetes (both types), which is different from the general one described above. Type-2 diabetes is usually associated with overweight and/or excess of fat in the body, so its protocol should not differ substantially from the general one presented above. With regard to type-I diabetes, since this treatment allows cells to consume less glucose, as it enhances their capacity to consume fat, it can reduce one's insulin dependence.
Diabetic patients were told to take their values of blood glucose regularly (three or four times a day during the first months) until they achieved good blood glucose values. During the treatment, when it was seen that blood glucose levels were decreasing, the patients were instructed to reduce the doses of drugs or insulin, until removing them completely, to avoid hypoglycemia.
Our clinical trails involved a group of 200 patients, […]. The patients were divided into four groups: (i) Type-2 diabetes patients who had been recently diagnosed and were not yet taking any oral drugs or insulin treatments, (ii) Type-2 diabetes patients who had been taking oral drugs (usually sulphonylurea derivatives) for up to several years, (iii) Type-2 diabetes patients who were suffering for many years, and had started their treatment with oral drugs and, after several years, progressed to insulin injections, which were eventually being supplemented with oral drugs, and (iv) Type-1 diabetes patients, all of them under insulin treatment. Most of these patients were also suffering from other related health problems (e.g., overweight or obesity, hypertension, sexual potency problems).
The basic treatment guidelines for these diabetes patients were essentially the same as that which was indicated above for our obesity and overweight patients (i.e., four daily takings of 1-3 grams of L-aspartic acid and the elimination of starches from one's diet).

[2] = Clinical trial in patients suffering from hypertension; format: in vivo, human
Excerpt: Clinical trials for 250 patients suffering from hypertension (156 men and 94 women, with ages between 19 and 70 years) are reported below.
A summary of our clinical results are shown in Table 3 for average daily L-aspartic acid consumptions of 12 g/day (four daily 3 g doses).

[3] = Migraines, headaches and menstrual pains reported by patients under treatment; format: in vivo, human; conditions: improvement in first or second month, in some cases several months
[4] = Clinical trial in non-diabetic patients with blood cholesterol excess; format: in vivo, human; conditions: more than 200 non-diabetic patients, four daily takings of 1-3 grams
Excerpt: These clinical trials included a group of more than 200 non-diabetic patients with blood cholesterol excesses. The basic treatment (i.e., four daily […] of 1-3 grams of L-aspartic acid and the elimination of starches from one's diet) for these patients was the same as that described above, plus: (i) complete elimination of carbohydrates from the diet, (ii) inclusion of unsaturated and polyunsaturated fat in all meals, and (iii) inclusion in some meals of cholesterol.

[5] = Patients with high blood uric acid levels under treatment; format: in vivo, human; conditions: sixty patients
Experimental: Sixty patients participating in this program had high blood uric acid levels.
Our treatment achieved a significant decrease in the uric acid levels of these patients: from initial levels of between 7.1 and 9.4 mg/100 mL to, after usually 2-4 months treatment, normal values.

[6] = Tobacco, caffeine and other drug addictions in patients under treatment; format: in vivo, human
Excerpt: For the treatment of tobacco addiction, we found it advisable to increase the frequency of the intake of L-aspartic acid to 10-12 small doses per day in order to control the anxiety to smoke.
In our clinical trials, some of our patients were addicted to some soft drugs like coffee (caffeine), tobacco (nicotine), Prozac (fluoxetin), Trankimazin (alprazolam), Tranxilium (di-potasium chloride-acetate). In general, they were able to reduce their consumption of these materials while undergoing our recommended treatments. […] In tobacco release addiction programs, some small supplementary doses (0.5-1.0 g. every 30-45 minutes) may be necessary during the day to stop the patient's anxiety.
Smoking patients who expressed a desire to stop were advised to prepare a small bottle of water (or even fruit juice) with some small spoonfuls of L-aspartic acid, and to drink some small swigs of this throughout the day to control their anxiety levels.

[7] = Sexual potency problems of male patients under treatment; format: in vivo, human; conditions: after 2-3 months of treatment
Excerpt: A number of the male patients in our trails initially complained of erectile disfunction and other sexual performance problems. […] These improvements were most significant for those patients who had reported problems of erectile disfunction; with these patients generally reporting improvements in all aspects of their sexual activities, including their sexual appetency and ability to ejaculate.

[8] = Digestion problems of patients under treatment; format: in vivo, human; conditions: more than three hundred patients, after two or three weeks
[9] = Ketosis in patients under treatment
[10] = Clinical trial of L-aspartic acid plus starch-free diet in obesity and overweight

N[C@@H](CC(=O)O)C(=O)O [L-aspartic acid]
reduction of oral drugs and/or insulin injections ([1]; all diabetes patients): able to reduce to some degree their oral drugs and/or insulin injections | glycosylated haemoglobin, cholesterol, tryglycerides and total lipids in blood analysis ([1]; diabetes patients): drastically reduced | reduction in glycosylated haemoglobin levels ([1]; diabetes patients, over the duration of treatment): ≥ 20% | time to change from insulin injections to oral diabetes drugs ([1]; most type-2 patients receiving insulin injections): 1-2 months | reduction in glycosylated haemoglobin level, single patient ([1]; patient Example 32 in Table 2): 38.05% | onset of improvement in glycemia levels ([1]; two type-2 patients (FIGS. 6 and 7)): clear from the first week of treatment | time to good control of glycemia and discontinuing diabetes medications ([1]; two type-2 patients (FIGS. 6 and 7), diabetes for over 10 years): 1-2 months | reduction in insulin dosages ([1]; type-1 diabetes patients, over periods of 3-12 months): 20-30% | reduction in % body fat ([2]; 250 hypertension patients, 12 g/day): approximately 10% | mean time to attainment of recommended normal blood pressures ([2]; 250 patients, 12 g/day (four daily 3 g doses)): 2.8 months | number of patients reporting migraines, headaches and menstrual pains [3]: significant reduction | blood cholesterol, tryglycerides and total lipid levels [4]: clear improvement | blood uric acid level after treatment ([5]; initial levels between 7.1 and 9.4 mg/100 mL): normal values | treatment time to normal uric acid values ([5]; usually): 2-4 months | daily number of cigarettes smoked ([6]; most tobacco-addicted patients interested in ceasing, after 2-4 weeks): able to reduce their daily numbers of cigarettes smoked | caffeine addiction ([6]; patients consuming 8-12 daily coffees or caffeine soft drinks): drastically eliminate this dependence in only a few weeks | smoking cessation ([6]; patients wishing to stop, small swigs through the day, after several weeks): all of these patients had ceased smoking | erectile disfunction and other sexual performance problems [7]: significant diminishments of their problems | digestion problems [8]: almost total resolution of their digestion problems | occurrence of ketosis under treatment ([9]; all patients under treatment): None of the patients under our treatment have suffered any kind of ketosis | blood ketone bodies in patients with signs of ketosis before treatment ([9]; relatively short time after beginning treatments): achieved normal blood concentration of ketone bodies | safety of prolonged treatment (blood chemical analysis) ([10]; duration as long as one wants): without danger of intoxication | fat burnt per day ([10]; estimated from water unloaded, ratio 14/18): 200 to 600 g | biochemical and hematological parameters in periodic blood analysis ([10]; human, in vivo): consistently showed improvements | side effect from reduced drinking ([10]; in some cases): hard stools and difficulty with bowel movements | weight loss outcome ([10]; more than 1,500 patients, ages 18 to 83): Successful weight losses in all cases | usual weight loss rate ([10]; obesity patients, also printed as 11-13 pounds per month): 5-6 kg per month | carbohydrate abstinence syndrome (weakness, feeling sick) ([10]; on elimination of carbohydrate-rich foods): only during their first two weeks of participation | fat as percentage of body mass after treatment ([10]; person (FIG. 5), 41.1% at start, after 290 days): 23% | body fat mass after treatment ([10]; person (FIG. 5), 53.5 kg of fat at start, after 290 days): 19.1 kg | body weight after treatment ([10]; person (FIG. 5), 130 kg at start, after 290 days of treatment): 83 kg | weight reduction ([10]; person (FIG. 5), after 290 days of treatment): 47 kg | change in percentage of body fat ([10]; versus conventional hypocaloric diets): significant reductions in our patients' percentages of body fat | anxiety, hunger pangs or energy loss during treatment ([10]; without sedative or stimulant drug): no significant anxiety, hunger pangs or energy loss
